Literature values, collected in PMC10583817 (RSC Medicinal Chemistry, 2023).

Tested on: WIN site of WDR5
Conditions: cited from earlier work

With Cc1nc(F)ccc1-c1cc(Cn2ccn(C)c2=N)cc(C(=O)NCc2ccc(Cl)c(Cl)c2)c1 [WIN-IN-4] as the compound, how does the binding activity read?
The binding activity was “sub-nanomole”.
